According to ChEMBL document CHEMBL5634100, “Novel spiro[pyrrolidine-2,3'-quinoline]-2'-one derivatives containing piperazine fragment as potential chitin synthase inhibitors and antifungal agents: Design, synthesis and biological evaluation” (Eur J Med Chem, 2023):
In brackets after ≈: the same amount, converted by molar mass.

Columns and labels:
[1] = tested on: Cryptococcus neoformans; experiment: Antimicrobial activity against Cryptococcus neoformans ATCC 32719 incubated for 24 hrs by two fold serial dilution method; format: functional
[2] = tested on: Aspergillus fumigatus; experiment: Antimicrobial activity against Aspergillus fumigatus GIMCC 3.19 assessed as inhibition of cell wall synthesis in presence of sorbitol; format: functional
[3] = tested on: Candida albicans; experiment: Antimicrobial activity against Candida albicans ATCC 76615 incubated for 24 hrs by two fold serial dilution method; format: functional
[4] = Inhibition of Candida tropicalis ATCC 750 chitin synthase using UDP-GlcNAc as substrate by TMB based microplate analyzer
[5] = tested on: Aspergillus flavus; experiment: Antimicrobial activity against Aspergillus flavus ATCC 16870 assessed as inhibition of cell wall synthesis in presence of sorbitol; format: functional
[6] = tested on: Aspergillus flavus; experiment: Antimicrobial activity against Aspergillus flavus ATCC 16870 incubated for 24 hrs by two fold serial dilution method; format: functional
[7] = tested on: Cryptococcus neoformans; experiment: Antimicrobial activity against Cryptococcus neoformans ATCC 32719 assessed as inhibition of cell wall synthesis in presence of sorbitol; format: functional
[8] = tested on: Candida albicans; experiment: Antimicrobial activity against Candida albicans ATCC 76615 assessed as inhibition of cell wall synthesis in presence of sorbitol; format: functional
[9] = tested on: Aspergillus fumigatus; experiment: Antimicrobial activity against Aspergillus fumigatus GIMCC 3.19 incubated for 24 hrs by two fold serial dilution method; format: functional
[10] = tested on: Candida tropicalis; experiment: Inhibition of Candida tropicalis ATCC 750 chitin synthase using UDP-GlcNAc as substrate at 300 ug/ml by TMB based microplate analyzer relative to control; conditions: dose 300.0 µg/ml
[11] = tested on: Candida albicans; experiment: Antimicrobial activity against fluconazole-resistant Candida albicans ATCC 76615R incubated for 24 hrs by two fold serial dilution method; format: functional
[12] = tested on: Aspergillus flavus; experiment: Antimicrobial activity against Fluconazole-resistant Aspergillus flavus ATCC 16870R incubated for 24 hrs by two fold serial dilution method; format: functional
[13] = tested on: Cryptococcus neoformans; experiment: Antimicrobial activity against Fluconazole-resistant Cryptococcus neoformans ATCC 32719R incubated for 24 hrs by two fold serial dilution method; format: functional
[14] = tested on: Aspergillus fumigatus; experiment: Antimicrobial activity against Fluconazole-resistant Aspergillus fumigatus GIMCC 3.19R incubated for 24 hrs by two fold serial dilution method; format: functional
[15] = tested on: Aspergillus flavus; experiment: Synergistic antimicrobial activity against Aspergillus flavus ATCC 16870 assessed as fractional inhibitory concentration index incubated for 24 hrs in presence of polyoxin B by checkerboard method; format: functional
[16] = tested on: Cryptococcus neoformans; experiment: Synergistic antimicrobial activity against Cryptococcus neoformans ATCC 32719 assessed as fractional inhibitory concentration index incubated for 24 hrs in presence of fluconazole by checkerboard method; format: functional
[17] = tested on: Aspergillus flavus; experiment: Antimicrobial activity against Aspergillus flavus ATCC 16870 incubated for 24 hrs in presence of fluconazole by checkerboard method; format: functional
[18] = tested on: Aspergillus flavus; experiment: Antimicrobial activity against Aspergillus flavus ATCC 16870 incubated for 24 hrs in presence of polyoxin B by checkerboard method; format: functional
[19] = tested on: Cryptococcus neoformans; experiment: Synergistic antimicrobial activity against Cryptococcus neoformans ATCC 32719 assessed as fractional inhibitory concentration index incubated for 24 hrs in presence of polyoxin B by checkerboard method; format: functional
[20] = tested on: Aspergillus fumigatus; experiment: Antimicrobial activity against Aspergillus fumigatus GIMCC 3.19 incubated for 24 hrs in presence of polyoxin B by checkerboard method; format: functional
[21] = tested on: Candida albicans; experiment: Antimicrobial activity against Candida albicans ATCC 76615 incubated for 24 hrs in presence of polyoxin B by checkerboard method; format: functional
[22] = tested on: Candida albicans; experiment: Additive antimicrobial activity against Candida albicans ATCC 76615 assessed as fractional inhibitory concentration index incubated for 24 hrs in presence of fluconazole by checkerboard method; format: functional
[23] = tested on: Candida albicans; experiment: Antimicrobial activity against Candida albicans ATCC 76615 incubated for 24 hrs in presence of fluconazole by checkerboard method; format: functional
[24] = tested on: Aspergillus fumigatus; experiment: Synergistic antimicrobial activity against Aspergillus fumigatus GIMCC 3.19 assessed as fractional inhibitory concentration index incubated for 24 hrs in presence of fluconazole by checkerboard method; format: functional
[25] = tested on: Aspergillus fumigatus; experiment: Synergistic antimicrobial activity against Aspergillus fumigatus GIMCC 3.19 assessed as fractional inhibitory concentration index incubated for 24 hrs in presence of polyoxin B by checkerboard method; format: functional
[26] = tested on: Candida albicans; experiment: Additive antimicrobial activity against Candida albicans ATCC 76615 assessed as fractional inhibitory concentration index incubated for 24 hrs in presence of polyoxin B by checkerboard method; format: functional
[27] = tested on: Cryptococcus neoformans; experiment: Antimicrobial activity against Cryptococcus neoformans ATCC 32719 incubated for 24 hrs in presence of fluconazole by checkerboard method; format: functional
[28] = tested on: Cryptococcus neoformans; experiment: Antimicrobial activity against Cryptococcus neoformans ATCC 32719 incubated for 24 hrs in presence of polyoxin B by checkerboard method; format: functional
[29] = tested on: Aspergillus flavus; experiment: Synergistic antimicrobial activity against Aspergillus flavus ATCC 16870 assessed as fractional inhibitory concentration index incubated for 24 hrs in presence of fluconazole by checkerboard method; format: functional
[30] = tested on: Aspergillus fumigatus; experiment: Antimicrobial activity against Aspergillus fumigatus GIMCC 3.19 incubated for 24 hrs in presence of fluconazole by checkerboard method; format: functional
[31] = tested on: Candida albicans; experiment: Antimicrobial activity against micafungin-resistant Candida albicans ATCC 76615R incubated for 24 hrs by two fold serial dilution method; format: functional

SMILES: NC(=O)OC[C@H](O)[C@@H](O)[C@H](N)C(=O)N[C@H](C(=O)O)[C@H]1O[C@@H](n2cc(CO)c(=O)[nH]c2=O)[C@H](O)[C@@H]1O [POLYOXIN B]
- MIC [1]: 16 µg/mL (≈ 31.5 µM)
- MIC [2]: 64 µg/mL
- MIC [3]: 8 µg/mL (≈ 15.8 µM)
- IC50 [4]: 90 µM
- MIC [5]: 64 µg/mL
- MIC [6]: 8 µg/mL (≈ 15.8 µM)
- MIC [7]: 128 µg/mL
- MIC [8]: 64 µg/mL
- MIC [9]: 8 µg/mL (≈ 15.8 µM)
- inhibition [10]: 86.1%

SMILES: OC(Cn1cncn1)(Cn1cncn1)c1ccc(F)cc1F [FLUCONAZOLE]
- MIC [1]: 8 µg/mL (≈ 26.1 µM)
- MIC [3]: 4 µg/mL (≈ 13.1 µM)
- MIC [11]: > 256 µg/mL
- MIC [12]: > 256 µg/mL
- MIC [13]: > 256 µg/mL
- MIC [6]: 8 µg/mL (≈ 26.1 µM)
- MIC [9]: 4 µg/mL (≈ 13.1 µM)
- MIC [14]: > 256 µg/mL

SMILES: O=C(c1ccc([N+](=O)[O-])cc1)N1CCN(CC(=O)N2CCCC23Cc2ccccc2NC3=O)CC1 (centres undefined)
- fractional inhibitory concentration index (FICI) [15]: 0.375
- fractional inhibitory concentration index (FICI) [16]: 0.75
- MIC [17]: 2 µg/mL
- MIC [18]: 1 µg/mL
- fractional inhibitory concentration index (FICI) [19]: 0.5
- MIC [20]: 4 µg/mL
- MIC [1]: 2 µg/mL (≈ 4.19 µM)
- MIC [2]: 64 µg/mL
- MIC [21]: 1 µg/mL
- MIC [3]: 2 µg/mL (≈ 4.19 µM)
- MIC [11]: 32 µg/mL (≈ 67 µM)
- MIC [12]: 128 µg/mL (≈ 268 µM)
- IC50 [4]: 110 µM
- fractional inhibitory concentration index (FICI) [22]: 1.125
- MIC [5]: 32 µg/mL
- MIC [23]: 0.5 µg/mL
- MIC [13]: 64 µg/mL (≈ 134 µM)
- fractional inhibitory concentration index (FICI) [24]: 1
- MIC [6]: 2 µg/mL (≈ 4.19 µM)
- MIC [7]: 64 µg/mL
- MIC [8]: 64 µg/mL
- MIC [9]: 1 µg/mL (≈ 2.09 µM)
- fractional inhibitory concentration index (FICI) [25]: 0.75
- MIC [14]: 64 µg/mL (≈ 134 µM)
- inhibition [10]: 80.2%
- fractional inhibitory concentration index (FICI) [26]: 1.125
- MIC [27]: 2 µg/mL
- MIC [28]: 4 µg/mL
- fractional inhibitory concentration index (FICI) [29]: 0.75
- MIC [30]: 2 µg/mL
- MIC [31]: 128 µg/mL (≈ 268 µM)

SMILES: Cc1cccc(C(=O)N2CCN(CC(=O)N3CCCC34Cc3ccccc3NC4=O)CC2)c1 (centres undefined)
- MIC [1]: 64 µg/mL (≈ 143 µM)
- MIC [3]: 16 µg/mL (≈ 35.8 µM)
- MIC [6]: 32 µg/mL (≈ 71.7 µM)
- MIC [9]: 32 µg/mL (≈ 71.7 µM)
- inhibition [10]: 49.4%

SMILES: CCc1ccc(C(=O)N2CCN(CC(=O)N3CCCC34Cc3ccccc3NC4=O)CC2)cc1 (centres undefined)
- MIC [1]: 32 µg/mL (≈ 69.5 µM)
- MIC [3]: 32 µg/mL (≈ 69.5 µM)
- MIC [6]: 128 µg/mL (≈ 278 µM)
- MIC [9]: 64 µg/mL (≈ 139 µM)
- inhibition [10]: 52.8%

SMILES: O=C(c1ccccc1)N1CCN(CC(=O)N2CCCC23Cc2ccccc2NC3=O)CC1 (centres undefined)
- MIC [1]: 64 µg/mL (≈ 148 µM)
- MIC [3]: 16 µg/mL (≈ 37 µM)
- MIC [6]: 32 µg/mL (≈ 74 µM)
- MIC [9]: 32 µg/mL (≈ 74 µM)
- inhibition [10]: 47%

SMILES: O=C(c1cc(Cl)ccc1Cl)N1CCN(CC(=O)N2CCCC23Cc2ccccc2NC3=O)CC1 (centres undefined)
- MIC [1]: 8 µg/mL (≈ 16 µM)
- MIC [2]: 64 µg/mL
- MIC [3]: 4 µg/mL (≈ 7.98 µM)
- MIC [11]: 64 µg/mL (≈ 128 µM)
- MIC [12]: 64 µg/mL (≈ 128 µM)
- IC50 [4]: 180 µM
- MIC [5]: 32 µg/mL
- MIC [13]: 64 µg/mL (≈ 128 µM)
- MIC [6]: 8 µg/mL (≈ 16 µM)
- MIC [7]: 128 µg/mL
- MIC [8]: 64 µg/mL
- MIC [9]: 8 µg/mL (≈ 16 µM)
- MIC [14]: 64 µg/mL (≈ 128 µM)
- inhibition [10]: 67.6%
- MIC [31]: 32 µg/mL (≈ 63.8 µM)

SMILES: Cc1ccc(C(=O)N2CCN(CC(=O)N3CCCC34Cc3ccccc3NC4=O)CC2)cc1 (centres undefined)
- MIC [1]: 64 µg/mL (≈ 143 µM)
- MIC [3]: 16 µg/mL (≈ 35.8 µM)
- MIC [6]: 16 µg/mL (≈ 35.8 µM)
- MIC [9]: 32 µg/mL (≈ 71.7 µM)
- inhibition [10]: 52.3%
